Read-outs that look alike come from different tables or passages of the source.
Key:
full-length human Cal1 [1] = target: T1, full-length human Cal1 (Homo sapiens (Human), UniProt P07384); test: Calpain inhibition FRET assay; type: biochemical; settings: Table 3, 20 min incubation, FRET substrate
APP/PS1 mice = test: Behavioral rescue assays (contextual fear memory, 2-day RAWM reference memory); type: in vivo
Source text: APP/PS1-vehicle: n=15; APP/PS1-67: n=6; APP/PS1-30a: n=10; WT-vehicle: n=15; WT-67=5; WT-30a: n=8, APP/PS1-33: n=11; WT-33: n=8, APP/PS1-50: n=10; WT-50: n=8. P<0.05 in all transgenic groups treated with compound compared to their respective vehicle-treated transgenics.
APP/PS1-vehicle: n=17; APP/PS1-67: n=9; APP/PS1-30a: n=10; WT-vehicle: n=18; WT-67=9; WT-30a: n=9, APP/PS1-33: n=10; WT-33: n=9, APP/PS1-50: n=11; WT-50: n=9.
The ability of compounds to rescue the defects in associative and reference memory in 3 month old APP/PS1 animals was assessed. Capability of ameliorating the defects in contextual fear memory was tested via i.p. administration (FIG. 12). In the 2-day RAWM test, daily injections of the 67, 30a, 33 and 50 from the 2nd month of age were beneficial against the loss of contextual fear memory and reference memory.
Impact of chronic treatment on against memory loss in older APP/PS1 mice (7 months of age) with a more severe plaque load was also investigated. Compounds 67, 33 and 50 were beneficial against memory impairment following chronic administration (FIG. 13).
The ability of a prodrug to rescue the defects in associative and reference memory in 3 month old APP/PS1 animals was assessed. […] Thus, the esterification seems to improve PK but it spoils PD parameters. Compound 89 ameliorates both LTP and memory in 3 month old APP/PS1 mice (FIG. 15). Daily treatment with 89 from the age of 2 months until 3 months ameliorated the defect in LTP (A) contextual fear memory (B) and reference memory (C) in APP/PS1 mice. n=10 for all groups. P<0.05 in transgenics treated with compound compared to their respective vehicle-treated transgenics.

[2] = test system: Aβ-induced LTP impairment; test: LTP rescue test; settings: assessed at 650 nM
Description: Residual levels of potentiation were averaged during the last 5 min of LTP.

[3] = Plasma pharmacokinetics after i.p. administration; type: in vivo; settings: ICR mice; for time of peak plasma concentration: i.p., 30a 7.57, 33 7.86, 50 7.83 mg/kg; for half-life / bioavailability: mouse, ip, plasma; for bioavailability: after i.p. administration, read-out: absolute bioavailability
Description: Plasma concentrations of 30a, 33 and 50 were determined by LC-MS/MS after i.p. administration to ICR mice. The plasma concentrations at each sampling time are shown on FIG. 10. […] Indeed, following i.p. administration of 30a (7.57 mg/kg), 33 (7.86 mg/kg) and 50 (7.83 mg/kg), the peak plasma concentration occurred at 0.25, 0.5 and 0.125 h after dosing, respectively. […] The respective half-lives were ˜0.6 hrs, ˜1.1 hrs and ˜0.6 hrs.

[4] = target: Full length porcine calpain (Sus scrofa (Pig), UniProt P35750); test: Calpain inhibition kinetics studies (Suc-LLVY-AMC substrate); type: biochemical
Source text: (§1) Papain is representative of a family of typically lysosomal or secreted cysteine proteases, including the human cathepsins (B, C, F, H, K, L1-2, O, S, W, Z). […] Several methods have been reported in the literature for detailed kinetic analysis of the irreversible inhibition of cysteine proteases, including Cal1. […] (SEQ ID NO: 8). Using this substrate, kinetic parameters were derived using the method of Davies and co-workers, whereby “progress curves” were initially obtained measuring product formation as a function of time and fitted to y=P∞*(1−e^(−k*x)) (FIG. 7) (Cuerrier, D. et al., J Biol Chem 2007, 282, 9600-11; herein incorporated by reference in its entirety). […] Kinetic parameters (ki, KI, ki/KI) were obtained from double reciprocal plots (FIG. 7).
(§2) Full length porcine calpain (156 nM), or papain (236 pM) was added to a solution of 100 mM NaCl, 50 mM HEPES, pH 7.6, 1 mM TCEP, 30 μM Suc-LLVY-AMC (SEQ ID NO: 8) substrate, and inhibitor (0.5 to 50 μM). Calpain reactions also contained CaCl2 (1 mM and 100 mM for porcine and rat respectively). Both substrate and inhibitors were dissolved in acetonitrile/DMSO (1:1) with the exception of E-64, dissolved in water. Organic solvent remained <2% in all reactions, and most often <1%. Reactions were carried out in microtiter 96-well plates, with 150 μL per well, 30° C., and product formation was monitored over time by fluorescence (Ex/Em 346/444 nm, with 420 nm cutoff filter). Kinetic values of kobs were determined via non-linear regression using one-phase association analysis and linear plots of 1/kobs vs. 1/[I] provided kinetic constants ki and KI.

[5] = test system: calpain-generated spectrin fragments; test: Spectrin proteolytic degradation products in hippocampi, western blot; type: in vivo; settings: for prevention of spectrin cleavage by calpains in hippocampi: i.p. treatment for 12 days, doses as for PK
Description: Studies were performed to determine capability of lowering levels of spectrin proteolytic degradation products in hippocampi from adult animals. Using western blot analysis, prevention of calpain-generated spectrin fragments was checked following i.p. treatment for 12 days with 30a, 33 and 50 at the same concentrations used for PK assessment. The array of vehicle samples was obtained by loading samples with 5, 10, 15, and 20 μg total protein/lane. Samples from compound treated animals were loaded at 15 μg/lane.

full-length human Cal1 [6] = target: T1, full-length human Cal1; test: Calpain inhibition FRET assay; type: biochemical
Description: Calpain activity was measured using full-length human Cal1 in the presence of a FRET substrate. IC50 values were approximated by co-incubation of varying concentrations of the appropriate inhibitor (10, 100, 500, 1000 nM) in the presence of the FRET substrate (DABCYL)TPLK-SPPSPR-(EDANS) (SEQ ID NO: 5) and activation buffer. […] A peptide inhibitor, Z-LLY-FMK (SEQ ID NO: 6), was used as a positive control.
The Calbiochem InnoZyme activity kit was used for measuring the inhibition effect inhibitors on human erythrocyte calpain 1 activity. […] 20 μM of the FRET substrate, 10 nM of native Cal1, and 20 μM TCEP (reducing agent) were added to the reaction mixture containing assay buffer (Tris [10 mM], NaCl [100 mM], pH 7.4). Cal1 was activated by the addition of 10 μM calcium. Cleavage of the scissile bond amide bond, K-S, releases the fluorophore (EDANS) from the internal quenching molecule (DABCYL), resulting in an increase in fluorescence measured at 320 nm excitation and 480 nm emission wave lengths for 30 min. Each inhibitor was added to the reaction mixture at varying concentrations (10 nM, 100 nM, 1 μM, and 10 μM) to detect inhibition of Cal1 and reduction in fluorescence was measured by 96 well-plate reader. Approximate IC50 values of each compound were generated using linear regression within Graphpad Prism Software.

[7] = Acute and chronic toxicity, maximum tolerated dose; type: in vivo; settings: mice; for MTD: mouse, in vivo, no malaise or death
Source text: For evaluation of acute and chronic toxicity we measured the maximum tolerated dose (MTD) in mice for 30a, 33 and 50.

papain = papain (Carica papaya (Papaya), UniProt P00784); test: biochemical; type: biochemical
Source text: as §1, §2

Cal1cat vs CathB = test: Competition assay for Cal1 vs CathB using the biotinylated epoxide probe; type: binding, rat
Description: Anti-biotin western blotting of Cal1cat (Lane 6) or CathB (Lane 7) after incubation with 27 show the expected immunoreactivity of the covalently modified proteins. […] Densitometric analysis, using means from triplicate immunoblots, was used to estimate the modification of each protein by 27 in the presence of inhibitors relative to control (Lane 1: ratio=1.0).
Cal1cat was used in place of the full length enzyme to avoid autocatalysis.
Cal1cat and CathB were pre-treated with inhibitors for 10 min, followed by a 20 min incubation with the biotinylated epoxide, 27, as illustrated in FIG. 4. […] A more quantitative estimate of selectivity was achieved by comparison of band intensities.
The appropriate inhibitor (5 μM) was pre-incubated in a mixture containing Cal1cat (2 μM), CathB (2 μM), TCEP (1 mM), and Ca^2+ (30 μM) for 10 min at 37° C. […] (5 μM) was then added and the mixture incubated an additional 20 min. The reaction was quenched with EDTA (10 μM) and samples were ran using 4-16% SDS PAGE gel, subsequently transferred to PVDF membrane and visualized by Pierce ECL (Enhanced chemiluminescent) western blotting substrate, intensity of each blot was calculated using densitometry software. Relative inhibition of each enzyme was calculated with respect to enzyme activity in the absence of inhibitor. Inhibitor preference to Cal1cat with respect to CathB, was calculated by dividing relative Cal1cat inhibition with relative CathB inhibition of that particular inhibitor.

primary neurons = test: LD50 in primary neurons; type: cell-based; settings: YES = LD50 ≧ 50 μM in primary neurons
Cal I = test: Relative selectivity for Cal I (E64 = 1.0), Table 2; type: biochemical; settings: relative to E64 = 1.0
[8] = 3 month old APP/PS1 mice, 2-day RAWM, daily from 2 months
[9] = 3 month old APP/PS1 mice, daily i.p. from 2 months
[10] = APP/PS1 mice, daily treatment from 2 until 7 months
[11] = ki/Ki calculated relative to E-64
[12] = mean ± S.D. of triplicate experiments
[13] = Table 2, approximate IC50, read-out: Cal I IC50

T1 sequence (P07384 whole entry): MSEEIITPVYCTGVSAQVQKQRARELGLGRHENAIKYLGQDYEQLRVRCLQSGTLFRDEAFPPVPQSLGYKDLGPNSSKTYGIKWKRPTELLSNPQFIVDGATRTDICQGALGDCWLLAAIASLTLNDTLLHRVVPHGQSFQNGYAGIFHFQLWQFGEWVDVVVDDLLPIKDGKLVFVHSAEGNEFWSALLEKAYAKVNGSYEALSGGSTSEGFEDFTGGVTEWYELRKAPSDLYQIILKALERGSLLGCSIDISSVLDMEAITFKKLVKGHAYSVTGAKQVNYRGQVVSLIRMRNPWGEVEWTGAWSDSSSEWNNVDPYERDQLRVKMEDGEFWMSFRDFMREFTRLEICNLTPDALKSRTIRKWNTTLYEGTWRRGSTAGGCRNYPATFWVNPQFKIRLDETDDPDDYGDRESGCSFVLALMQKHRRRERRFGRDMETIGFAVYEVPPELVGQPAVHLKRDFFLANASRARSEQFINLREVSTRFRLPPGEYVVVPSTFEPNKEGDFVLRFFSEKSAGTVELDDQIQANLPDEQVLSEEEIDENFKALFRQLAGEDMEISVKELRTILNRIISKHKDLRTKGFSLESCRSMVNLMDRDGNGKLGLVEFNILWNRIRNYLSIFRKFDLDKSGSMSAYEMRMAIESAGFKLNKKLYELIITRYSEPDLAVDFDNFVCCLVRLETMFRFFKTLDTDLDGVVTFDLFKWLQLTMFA
T1 sequence (P04632 whole entry partner): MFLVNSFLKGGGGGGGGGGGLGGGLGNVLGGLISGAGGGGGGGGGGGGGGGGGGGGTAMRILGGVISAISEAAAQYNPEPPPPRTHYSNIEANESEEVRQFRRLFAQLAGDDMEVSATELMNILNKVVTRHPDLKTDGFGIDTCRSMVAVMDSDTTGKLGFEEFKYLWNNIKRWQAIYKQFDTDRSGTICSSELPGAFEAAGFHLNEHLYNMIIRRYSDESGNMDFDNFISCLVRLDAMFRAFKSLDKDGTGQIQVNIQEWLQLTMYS
Full length porcine calpain, sequence (P35750 whole entry): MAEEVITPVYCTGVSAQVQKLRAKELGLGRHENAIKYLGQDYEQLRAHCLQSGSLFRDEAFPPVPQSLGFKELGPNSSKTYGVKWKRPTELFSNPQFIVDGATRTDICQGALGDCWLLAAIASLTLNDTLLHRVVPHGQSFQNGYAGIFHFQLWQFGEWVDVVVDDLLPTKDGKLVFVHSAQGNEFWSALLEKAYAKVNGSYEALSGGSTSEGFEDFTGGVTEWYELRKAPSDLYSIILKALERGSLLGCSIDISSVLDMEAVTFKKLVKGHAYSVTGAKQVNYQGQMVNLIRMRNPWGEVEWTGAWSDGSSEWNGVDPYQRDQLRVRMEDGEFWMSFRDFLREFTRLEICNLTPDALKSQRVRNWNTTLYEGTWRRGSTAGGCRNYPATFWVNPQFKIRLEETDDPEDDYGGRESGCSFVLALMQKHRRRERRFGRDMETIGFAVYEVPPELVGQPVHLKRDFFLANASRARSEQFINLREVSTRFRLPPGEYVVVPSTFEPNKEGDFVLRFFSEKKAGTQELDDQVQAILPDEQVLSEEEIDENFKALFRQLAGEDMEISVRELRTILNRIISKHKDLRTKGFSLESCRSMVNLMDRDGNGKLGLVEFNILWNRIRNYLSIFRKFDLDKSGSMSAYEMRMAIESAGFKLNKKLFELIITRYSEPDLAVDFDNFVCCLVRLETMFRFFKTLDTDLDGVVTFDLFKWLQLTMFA
Full length porcine calpain, sequence (P04574 whole entry partner): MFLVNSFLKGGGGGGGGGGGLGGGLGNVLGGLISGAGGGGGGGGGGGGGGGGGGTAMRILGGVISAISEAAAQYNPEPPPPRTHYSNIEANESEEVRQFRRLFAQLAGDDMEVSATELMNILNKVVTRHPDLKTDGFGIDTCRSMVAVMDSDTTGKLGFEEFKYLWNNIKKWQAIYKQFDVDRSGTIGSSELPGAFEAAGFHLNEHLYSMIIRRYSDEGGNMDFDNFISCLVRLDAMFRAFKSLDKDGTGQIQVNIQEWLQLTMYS
papain, sequence (P00784 134-345): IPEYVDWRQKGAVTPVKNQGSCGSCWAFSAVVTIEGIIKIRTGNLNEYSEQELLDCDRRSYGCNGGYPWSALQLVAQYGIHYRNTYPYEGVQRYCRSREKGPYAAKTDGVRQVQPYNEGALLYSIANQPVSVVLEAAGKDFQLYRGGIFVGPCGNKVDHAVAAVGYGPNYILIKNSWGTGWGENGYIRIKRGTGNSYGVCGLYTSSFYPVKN

## O=C(NCc1cn(-c2ccc(F)cc2)nn1)[C@H](Cc1cscn1)NC(=O)[C@H]1O[C@@H]1C(=O)O [Compound 50, (2S,3S)-3-((S)-1-((1-(4-fluorophenyl)-1H-1,2,3-triazol-4-yl)methylamino)-1-oxo-3-(thiazol-4-yl)propan-2-ylcarbamoyl)oxirane-2-carboxylic acid]
full-length human Cal1 [1]
  IC50: 100 nM
APP/PS1 mice; [8]
  reference memory: beneficial
APP/PS1 mice; [9]
  contextual fear memory: beneficial
APP/PS1 mice; 7 month old APP/PS1 mice, chronic administration
  memory impairment: beneficial
APP/PS1 mice; [10]
  contextual fear memory: ameliorated
  reference memory: ameliorated
[2]
  potency for LTP rescue compared with E64: surpassed E64
[3]
  time of peak plasma concentration: 0.125 h
  half-life: ~36 min
  bioavailability: 41.3%
[4]; Cal1 over papain, ki/Ki relative to E-64 set at 1.0
  Relative Selectivity: 9.3
[4]; apparent equilibrium constant, full length Cal1, read-out: K1 Calpain1
  Ki: 2900 nM
[4]; inhibition rate, full length Cal1
  ki Calpain1: 0.10 s⁻¹
[4]; ki/Ki as measure, compared with E-64
  relative selectivity for inhibition of Cal1 over papain (in words): Cal1 selectivity
[4]; [11]
  rel Calpain1: 1.1
[4]; [12]
  10^−4 × ki/Ki Calpain1: 3.31 ± 0.32
[5]
  prevention of spectrin cleavage by calpains in hippocampi: dramatically reduced the amount of fragments
[5]; inferred from hippocampal spectrin cleavage
  brain penetration: capable of effectively penetrating the brain
full-length human Cal1 [6]
  Cal1 inhibition (in words): potent activity
full-length human Cal1 [6]; [13]
  IC50: 125 nM
[7]
  MTD: 200 mg/kg
papain; apparent equilibrium constant, read-out: K1 Papain
  Ki: 19.2 µM
papain; inhibition rate
  ki Papain: 12.7 s⁻¹
papain; [11]
  rel Papain: 0.12
papain; [12]
  10^−5 × ki/Ki Papain: 6.62 ± 0.74

## O=C(Nc1nc(-c2ccc(F)cc2)cs1)C(Cc1cnc[nH]1)NC(=O)[C@H]1O[C@@H]1C(=O)O (stereo partly drawn) [Compound 30a, (2S,3S)-3-(1-(4-(4-fluorophenyl)thiazol-2-ylamino)-3-(1H-imidazol-4-yl)-1-oxopropan-2-ylcarbamoyl)oxirane-2-carboxylic acid]
APP/PS1 mice; [8]
  reference memory: beneficial
APP/PS1 mice; [9]
  contextual fear memory: beneficial
APP/PS1 mice; [10]
  contextual fear memory: ameliorated
  reference memory: ameliorated
[3]
  time of peak plasma concentration: 0.25 h
  half-life: ~36 min
  bioavailability: 80.4%
Cal1cat vs CathB; 10 min pre-treatment, then 20 min with 27
  blocking of active site modification by probe 27 (western blot signal): little change in the CathB signal
Cal1cat vs CathB; ratio for probe 27 alone set as 1.0, inhibitor 5 μM
  selectivity for Cal1cat (ratio of Cal1cat versus CathB band intensities): highest selectivity
[5]
  prevention of spectrin cleavage by calpains in hippocampi: less efficient at preventing the spectrin cleavage
full-length human Cal1 [6]; Cal1, values stated in text, read-out: IC50
  IC50: ~100 nM
full-length human Cal1 [6]; [13]
  IC50: 100 nM
[7]; chronic treatment at MTD
  chronic toxicity, histopathology: nephrotoxicity was noticed
[7]
  MTD: 100 mg/kg

## Cn1cnc(C[C@H](NC(=O)[C@H]2O[C@@H]2C(=O)O)C(=O)Nc2nc(-c3ccc(F)cc3)cs2)c1 [Compound 36, (2S,3S)-3-((S)-1-(4-(4-fluorophenyl)thiazol-2-ylamino)-3-(1-methyl-1H-imidazol-4-yl)-1-oxopropan-2-ylcarbamoyl)oxirane-2-carboxylic acid]
full-length human Cal1 [1]
  IC50: 225 nM
[2]
  potency for LTP rescue compared with E64: did not surpass

## CC(=O)NCCCCNC(=O)[C@H](CC(C)C)NC(=O)C1OC1c1ccccc1 (some centres unmarked) [Compound 61]
Primary neurons
  LD50 ≧ 50 μM primary neurons: YES
full-length human Cal1 [6]; [13]
  IC50: ~1000 nM
Cal I
  Relative selectivity for Cal I E64 = 1.0: 0.3

Source: patent publication US9403843B2, “Cysteine protease inhibitors and uses thereof” (The Trustees of Columbia University in the City of New York, priority 2012, dated 2016)
